# Laboratory results as given in patent US4401604A, “Process for preparing thiosulfenamide derivatives of N-phosphonomethylglycine triesters” (Monsanto Company, priority 1981, dated 1983).
# Assays:
# Experiment in all cases: Post-emergence herbicidal activity, greenhouse
# Assay type in all cases: in vivo
# Quackgrass = conditions: Table I, 4 WAT
# Method in brief: (§1)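 Sow seeds/propagules in soil pans, grow in greenhouse with subirrigation to 2–3 weeks, spray foliage with compound formulated with cyclohexanone emulsifier mixture (~0.4%), return to greenhouse, then rate injury against controls about two and four weeks later.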
# Downy Brome = test system: Downy Brome
# Method in brief: as §1
# Velvetleaf = test system: Velvetleaf
# Method in brief: as §1
# Barnyardgrass = test system: Barnyardgrass
# Method in brief: as §1
# Panicum Spp = conditions: Table II
# Method in brief: as §1
# Wheat = conditions: Table II
# Method in brief: as §1
# Canada Thistle = conditions: Table I, 4 WAT
# Method in brief: as §1
# Crabgrass = conditions: Table II
# Method in brief: as §1
# Cocklebur = test system: Cocklebur
# Method in brief: as §1
# Wild Buckwheat = conditions: Table II
# Method in brief: as §1
# Rice = conditions: Table II
# Method in brief: as §1
# Sorghum = conditions: Table II
# Method in brief: as §1
# Soybean = conditions: Table II
# Method in brief: as §1
# Sugar Beet = conditions: Table II
# Method in brief: as §1
# Johnsongrass = conditions: Table I, 4 WAT
# Method in brief: as §1
# Hemp Sesbania = conditions: Table II
# Method in brief: as §1
# Morningglory = test system: Morningglory
# Method in brief: as §1
# Lambsquarters = test system: Lambsquarters
# Method in brief: as §1
# Smartweed = test system: Smartweed
# Method in brief: as §1
# Yellow Nutsedge = conditions: Table I, 4 WAT
# Method in brief: as §1
compound,measurement,setting,value
"COC(=O)CN(CP(=O)(Oc1ccccc1)Oc1ccccc1)SSC(C)C [I, Glycine, N-[(diphenoxyphosphinyl)methyl]-N-[(1-methylethyl)dithio]-, methyl ester]",post-emergence herbicidal activity index,Quackgrass; 5.6 kg/h,4 (100% control)
same,post-emergence herbicidal activity index,Quackgrass; 11.2 kg/h,3 (75-99% control)
same,post-emergence herbicidal activity index,"Downy Brome; Table I, 5.6 kg/h, 4 WAT",3 (75-99% control)
same,post-emergence herbicidal activity index,"Downy Brome; Table I, 11.2 kg/h, 4 WAT",3 (75-99% control)
same,post-emergence herbicidal activity index,"Downy Brome; Table II, 0.056 kg/h, 2 WAT",0 (0- 24% control)
same,post-emergence herbicidal activity index,"Downy Brome; Table II, 0.28 kg/h, 2 WAT",0 (0- 24% control)
same,post-emergence herbicidal activity index,"Downy Brome; Table II, 1.12 kg/h, 4 WAT",1 (25-49% control)
same,post-emergence herbicidal activity index,"Downy Brome; Table II, 5.6 kg/h, 4 WAT",2 (50-74% control)
same,post-emergence herbicidal activity index,"Downy Brome; Table II, 11.2 kg/h, 4 WAT",2 (50-74% control)
same,post-emergence herbicidal activity index,"Velvetleaf; Table I, 5.6 kg/h, 4 WAT",3 (75-99% control)
same,post-emergence herbicidal activity index,"Velvetleaf; Table I, 11.2 kg/h, 4 WAT",4 (100% control)
same,post-emergence herbicidal activity index,"Velvetleaf; Table II, 0.056 kg/h, 2 WAT",0 (0- 24% control)
same,post-emergence herbicidal activity index,"Velvetleaf; Table II, 0.28 kg/h, 2 WAT",1 (25-49% control)
same,post-emergence herbicidal activity index,"Velvetleaf; Table II, 1.12 kg/h, 4 WAT",2 (50-74% control)
same,post-emergence herbicidal activity index,"Velvetleaf; Table II, 5.6 kg/h, 4 WAT",4 (100% control)
same,post-emergence herbicidal activity index,"Velvetleaf; Table II, 11.2 kg/h, 4 WAT",1 (25-49% control)
same,post-emergence herbicidal activity index,"Barnyardgrass; Table I, 5.6 kg/h, 4 WAT",4 (100% control)
same,post-emergence herbicidal activity index,"Barnyardgrass; Table I, 11.2 kg/h, 4 WAT",4 (100% control)
same,post-emergence herbicidal activity index,"Barnyardgrass; Table II, 0.056 kg/h, 2 WAT",0 (0- 24% control)
same,post-emergence herbicidal activity index,"Barnyardgrass; Table II, 0.28 kg/h, 2 WAT",1 (25-49% control)
same,post-emergence herbicidal activity index,"Barnyardgrass; Table II, 1.12 kg/h, 4 WAT",2 (50-74% control)
same,post-emergence herbicidal activity index,"Barnyardgrass; Table II, 5.6 kg/h, 4 WAT",4 (100% control)
same,post-emergence herbicidal activity index,"Barnyardgrass; Table II, 11.2 kg/h, 4 WAT",3 (75-99% control)
same,post-emergence herbicidal activity index,"Panicum Spp; 0.056 kg/h, 2 WAT",0 (0- 24% control)
same,post-emergence herbicidal activity index,"Panicum Spp; 0.28 kg/h, 2 WAT",1 (25-49% control)
same,post-emergence herbicidal activity index,"Panicum Spp; 1.12 kg/h, 4 WAT",1 (25-49% control)
same,post-emergence herbicidal activity index,"Panicum Spp; 5.6 kg/h, 4 WAT",3 (75-99% control)
same,post-emergence herbicidal activity index,"Panicum Spp; 11.2 kg/h, 4 WAT",3 (75-99% control)
same,post-emergence herbicidal activity index,"Wheat; 0.056 kg/h, 2 WAT",0 (0- 24% control)
same,post-emergence herbicidal activity index,"Wheat; 0.28 kg/h, 2 WAT",0 (0- 24% control)
same,post-emergence herbicidal activity index,"Wheat; 1.12 kg/h, 4 WAT",1 (25-49% control)
same,post-emergence herbicidal activity index,"Wheat; 5.6 kg/h, 4 WAT",3 (75-99% control)
same,post-emergence herbicidal activity index,"Wheat; 11.2 kg/h, 4 WAT",0 (0- 24% control)
same,post-emergence herbicidal activity index,Canada Thistle; 5.6 kg/h,2 (50-74% control)
same,post-emergence herbicidal activity index,Canada Thistle; 11.2 kg/h,3 (75-99% control)
same,post-emergence herbicidal activity index,"Crabgrass; 0.056 kg/h, 2 WAT",0 (0- 24% control)
same,post-emergence herbicidal activity index,"Crabgrass; 0.28 kg/h, 2 WAT",0 (0- 24% control)
same,post-emergence herbicidal activity index,"Crabgrass; 1.12 kg/h, 4 WAT",3 (75-99% control)
same,post-emergence herbicidal activity index,"Crabgrass; 5.6 kg/h, 4 WAT",4 (100% control)
same,post-emergence herbicidal activity index,"Crabgrass; 11.2 kg/h, 4 WAT",3 (75-99% control)
same,post-emergence herbicidal activity index,"Cocklebur; Table I, 5.6 kg/h, 4 WAT",4 (100% control)
same,post-emergence herbicidal activity index,"Cocklebur; Table I, 11.2 kg/h, 4 WAT",4 (100% control)
same,post-emergence herbicidal activity index,"Cocklebur; Table II, 0.056 kg/h, 2 WAT",0 (0- 24% control)
same,post-emergence herbicidal activity index,"Cocklebur; Table II, 0.28 kg/h, 2 WAT",0 (0- 24% control)
same,post-emergence herbicidal activity index,"Cocklebur; Table II, 1.12 kg/h, 4 WAT",2 (50-74% control)
same,post-emergence herbicidal activity index,"Cocklebur; Table II, 5.6 kg/h, 4 WAT",3 (75-99% control)
same,post-emergence herbicidal activity index,"Cocklebur; Table II, 11.2 kg/h, 4 WAT",0 (0- 24% control)
same,post-emergence herbicidal activity index,"Wild Buckwheat; 0.056 kg/h, 2 WAT",0 (0- 24% control)
same,post-emergence herbicidal activity index,"Wild Buckwheat; 0.28 kg/h, 2 WAT",0 (0- 24% control)
same,post-emergence herbicidal activity index,"Wild Buckwheat; 1.12 kg/h, 4 WAT",2 (50-74% control)
same,post-emergence herbicidal activity index,"Wild Buckwheat; 5.6 kg/h, 4 WAT",3 (75-99% control)
same,post-emergence herbicidal activity index,"Wild Buckwheat; 11.2 kg/h, 4 WAT",0 (0- 24% control)
same,post-emergence herbicidal activity index,"Rice; 0.056 kg/h, 2 WAT",0 (0- 24% control)
same,post-emergence herbicidal activity index,"Rice; 0.28 kg/h, 2 WAT",0 (0- 24% control)
same,post-emergence herbicidal activity index,"Rice; 1.12 kg/h, 4 WAT",0 (0- 24% control)
same,post-emergence herbicidal activity index,"Rice; 5.6 kg/h, 4 WAT",3 (75-99% control)
same,post-emergence herbicidal activity index,"Rice; 11.2 kg/h, 4 WAT",3 (75-99% control)
same,post-emergence herbicidal activity index,"Sorghum; 0.056 kg/h, 2 WAT",0 (0- 24% control)
same,post-emergence herbicidal activity index,"Sorghum; 0.28 kg/h, 2 WAT",0 (0- 24% control)
same,post-emergence herbicidal activity index,"Sorghum; 1.12 kg/h, 4 WAT",1 (25-49% control)
same,post-emergence herbicidal activity index,"Sorghum; 5.6 kg/h, 4 WAT",3 (75-99% control)
same,post-emergence herbicidal activity index,"Sorghum; 11.2 kg/h, 4 WAT",2 (50-74% control)
same,post-emergence herbicidal activity index,"Soybean; 0.056 kg/h, 2 WAT",0 (0- 24% control)
same,post-emergence herbicidal activity index,"Soybean; 0.28 kg/h, 2 WAT",0 (0- 24% control)
same,post-emergence herbicidal activity index,"Soybean; 1.12 kg/h, 4 WAT",1 (25-49% control)
same,post-emergence herbicidal activity index,"Soybean; 5.6 kg/h, 4 WAT",3 (75-99% control)
same,post-emergence herbicidal activity index,"Soybean; 11.2 kg/h, 4 WAT",0 (0- 24% control)
same,post-emergence herbicidal activity index,"Sugar Beet; 0.056 kg/h, 2 WAT",0 (0- 24% control)
same,post-emergence herbicidal activity index,"Sugar Beet; 0.28 kg/h, 2 WAT",0 (0- 24% control)
same,post-emergence herbicidal activity index,"Sugar Beet; 1.12 kg/h, 4 WAT",2 (50-74% control)
same,post-emergence herbicidal activity index,"Sugar Beet; 5.6 kg/h, 4 WAT",4 (100% control)
same,post-emergence herbicidal activity index,"Sugar Beet; 11.2 kg/h, 4 WAT",3 (75-99% control)
same,post-emergence herbicidal activity index,Johnsongrass; 5.6 kg/h,3 (75-99% control)
same,post-emergence herbicidal activity index,Johnsongrass; 11.2 kg/h,4 (100% control)
same,post-emergence herbicidal activity index,"Hemp Sesbania; 0.056 kg/h, 2 WAT",0 (0- 24% control)
same,post-emergence herbicidal activity index,"Hemp Sesbania; 0.28 kg/h, 2 WAT",0 (0- 24% control)
same,post-emergence herbicidal activity index,"Hemp Sesbania; 1.12 kg/h, 4 WAT",1 (25-49% control)
same,post-emergence herbicidal activity index,"Hemp Sesbania; 5.6 kg/h, 4 WAT",4 (100% control)
same,post-emergence herbicidal activity index,"Hemp Sesbania; 11.2 kg/h, 4 WAT",0 (0- 24% control)
same,post-emergence herbicidal activity index,"Morningglory; Table I, 5.6 kg/h, 4 WAT",4 (100% control)
same,post-emergence herbicidal activity index,"Morningglory; Table I, 11.2 kg/h, 4 WAT",3 (75-99% control)
same,post-emergence herbicidal activity index,"Morningglory; Table II, 0.056 kg/h, 2 WAT",0 (0- 24% control)
same,post-emergence herbicidal activity index,"Morningglory; Table II, 0.28 kg/h, 2 WAT",0 (0- 24% control)
same,post-emergence herbicidal activity index,"Morningglory; Table II, 1.12 kg/h, 4 WAT",2 (50-74% control)
same,post-emergence herbicidal activity index,"Morningglory; Table II, 5.6 kg/h, 4 WAT",3 (75-99% control)
same,post-emergence herbicidal activity index,"Morningglory; Table II, 11.2 kg/h, 4 WAT",1 (25-49% control)
same,post-emergence herbicidal activity index,"Lambsquarters; Table I, 5.6 kg/h, 4 WAT",3 (75-99% control)
same,post-emergence herbicidal activity index,"Lambsquarters; Table I, 11.2 kg/h, 4 WAT",4 (100% control)
same,post-emergence herbicidal activity index,"Lambsquarters; Table II, 0.056 kg/h, 2 WAT",0 (0- 24% control)
same,post-emergence herbicidal activity index,"Lambsquarters; Table II, 0.28 kg/h, 2 WAT",0 (0- 24% control)
same,post-emergence herbicidal activity index,"Lambsquarters; Table II, 1.12 kg/h, 4 WAT",3 (75-99% control)
same,post-emergence herbicidal activity index,"Lambsquarters; Table II, 5.6 kg/h, 4 WAT",4 (100% control)
same,post-emergence herbicidal activity index,"Lambsquarters; Table II, 11.2 kg/h, 4 WAT",3 (75-99% control)
same,post-emergence herbicidal activity index,"Smartweed; Table I, 5.6 kg/h, 4 WAT",4 (100% control)
same,post-emergence herbicidal activity index,"Smartweed; Table I, 11.2 kg/h, 4 WAT",4 (100% control)
same,post-emergence herbicidal activity index,"Smartweed; Table II, 0.056 kg/h, 2 WAT",0 (0- 24% control)
same,post-emergence herbicidal activity index,"Smartweed; Table II, 0.28 kg/h, 2 WAT",0 (0- 24% control)
same,post-emergence herbicidal activity index,"Smartweed; Table II, 1.12 kg/h, 4 WAT",3 (75-99% control)
same,post-emergence herbicidal activity index,"Smartweed; Table II, 5.6 kg/h, 4 WAT",4 (100% control)
same,post-emergence herbicidal activity index,"Smartweed; Table II, 11.2 kg/h, 4 WAT",3 (75-99% control)
same,post-emergence herbicidal activity index,Yellow Nutsedge; 5.6 kg/h,3 (75-99% control)
same,post-emergence herbicidal activity index,Yellow Nutsedge; 11.2 kg/h,3 (75-99% control)
